In patent US7902373B2 (Pfizer Inc, priority 2006, dated 2011):
Where a name gives a salt, the structure may show the parent alone.

Target: T1, human recombinant H-PGDS (Homo sapiens, UniProt O60760)
Assay: Fluorescence intensity h-PGDS TBA enzyme assay
Type: biochemical
Conditions: Examples up to 622 (and 3a, 3b)

T1 sequence (O60760 whole entry): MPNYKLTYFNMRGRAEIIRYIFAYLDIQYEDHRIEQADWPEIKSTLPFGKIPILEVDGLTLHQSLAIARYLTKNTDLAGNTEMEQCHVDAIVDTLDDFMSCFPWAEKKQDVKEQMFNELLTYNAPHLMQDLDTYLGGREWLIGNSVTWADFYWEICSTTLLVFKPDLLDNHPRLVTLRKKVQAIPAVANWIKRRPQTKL

IC50 [nM]	Molecule
33.3	CC(C)N1CCC(NC(=O)c2ccc(-c3cccc(F)c3)nc2)C1 (stereo not drawn) [Example 589, 6-(3-Fluorophenyl)-N-(1-isopropylpyrrolidin-3-yl)nicotinamide]
0.74	O=C(NC1CCN(c2ncc3c(n2)CCOC3)C1)c1ccc(-c2cccc(F)c2)nc1 (stereo not drawn) [Example 590, N-[1-(7,8-Dihydro-5H-pyrano[43-d]pyrimidin-2-yl)pyrrolidin-3-yl]-6-(3-fluorophenyl)nicotinamide]
5.57	CCCN1CCC(NC(=O)c2ccc(-c3cccc(F)c3)nc2)CC1 [Example 591, 6-(3-Fluorophenyl)-N-(1-propylpiperidin-4-yl)nicotinamide]
2.44	CNC(=O)N1CCC(NC(=O)c2ccc(-c3cccc(F)c3)nc2)CC1 [Example 592, 6-(3-Fluorophenyl)-N-{1-[(methylamino)carbonyl]piperidin-4-yl}nicotinamide]
2	O=C(NC1CCN(CC2CCOCC2)CC1)c1ccc(-c2cccc(F)c2)nc1 [Example 593, 6-(3-Fluorophenyl)-N-[1-(tetrahydro-2H-pyran-4-ylmethyl)piperidin-4-yl]nicotinamide]
2.7	CCOC(=O)N1CCC(NC(=O)c2ccc(-c3cccc(F)c3)nc2)C1 (stereo not drawn) [Example 594, Ethyl 3-({[6-(3-fluorophenyl)pyridin-3-yl]carbonyl}amino)pyrrolidine-1-carboxylate]
1.06	O=C(NC1CCN(c2ncc3c(n2)CCC3)C1)c1ccc(-c2cccc(F)c2)nc1 (stereo not drawn) [Example 595, N-[1-(6,7-Dihydro-5H-cyclopenta[d]pyrimidin-2-yl)pyrrolidin-3-yl]-6-(3-fluorophenyl)nicotinamide]
1.93	O=C(NC1CCN(CC2CC2)CC1)c1ccc(-c2cccc(F)c2)nc1 [Example 596, N-[1-(Cyclopropylmethyl)piperidin-4-yl]-6-(3-fluorophenyl)nicotinamide]
0.85	CN1CCc2nc(N3CCC(NC(=O)c4ccc(-c5cccc(F)c5)nc4)C3)ncc2C1 (stereo not drawn) [Example 597, 6-(3-Fluorophenyl)-N-[1-(6-methyl-5,6,7,8-tetrahydropyrido[4.3-d]pyrimidin-2-yl)pyrrolidin-3-yl]nicotinamide]
3.79	CC(C)(C)OC(=O)N1CCC(NC(=O)c2ccc(-c3cccc(F)c3)nc2)CC1 [Example 598, tert-Butyl 4-({[6-(3-fluorophenyl)pyridin-3-yl]carbonyl}amino)piperidine-1-carboxylate]
2.92	CC(C)(C)OC(=O)N1CC(NC(=O)c2ccc(-c3cccc(F)c3)nc2)C1 [Example 599]
6.76	CC(C)(C)C(=O)N1CC(NC(=O)c2ccc(-c3cccc(F)c3)nc2)C1 [Example 601, N-[1-(2,2-Dimethylpropanoyl)azetidin-3-yl]-6-(3-fluorophenyl)nicotinamide]
2.98	Cc1cc(C)c(C#N)c(N2CC(NC(=O)c3ccc(-c4cccc(F)c4)nc3)C2)n1 [Example 602]
2.29	CCc1cn2nc(N3CC(NC(=O)c4ccc(-c5cccc(F)c5)nc4)C3)ccc2n1 [Example 603, N-[1-(2-Ethylimidazo[1,2-b]pyridazin-6-yl)azetidin-3-yl]-6-(3-fluorophenyl)nicotinamide]
11.5	O=C(NC1CN(c2ncccc2C(F)(F)F)C1)c1ccc(-c2cccc(F)c2)nc1 [Example 604, 6-(3-Fluorophenyl)-N-{1-[3-(trifluoromethyl)pyridin-2-yl]azetidin-3-yl}nicotinamide]
2.9	O=C(NC1CN(c2cnc3ccccc3n2)C1)c1ccc(-c2cccc(F)c2)nc1 [Example 605, 6-(3-Fluorophenyl)-N-(1-quinoxalin-2-ylazetidin-3-yl)nicotinamide]
10.8	O=C(NC1CN(c2nc3ccccc3o2)C1)c1ccc(-c2cccc(F)c2)nc1 [Example 606, N-[1-(1,3-Benzoxazol-2-yl)azetidin-3-yl]-6-(3-fluorophenyl)nicotinamide]
4.44	Cc1ccc(C#N)c(N2CC(NC(=O)c3ccc(-c4cccc(F)c4)nc3)C2)n1 [Example 607, N-[1-(3-Cyano-6-methylpyridin-2-yl)azetidin-3-yl]-6-(3-fluorophenyl)nicotinamide]
3.66	O=C(NC1CCN(CC(F)(F)F)CC1)c1cnc(-c2cccc(F)c2)c(Cl)c1 [Example 620, 5-Chloro-6-(3-fluorophenyl)-N-[1-(2,2,2-trifluoroethyl)piperidin-4-yl]nicotinamide]
1.59	O=C(NC1CCN(c2cccnn2)CC1)c1cnc(-c2cccc(F)c2)c(Cl)c1 [Example 621, 5-Chloro-6-(3-fluorophenyl)-N-(1-pyridazin-3-ylpiperidin-4-yl)nicotinamide]
3.48	CC(C)(C)C(=O)N1CCC(NC(=O)c2cnc(-c3cccc(F)c3)c(Cl)c2)CC1 [Example 622, 5-Chloro-6-(3-fluorophenyl)-N-(1-pivaloylpiperidin-4-yl)nicotinamide]
1000	N-(1-{[4-(3,4)-1,3-Thiazol-2-yl]methyl}piperidin-4-yl)- 6-(3-fluorophenyl)nicotinamide [Example 413]
0.375	N-[1-(2-Chloro-2-fluoro-5-methoxybenzyl)piperidin-4- yl]-6-(3-fluorophenyl)nicotinamide [Example 468]
0.655	N-{1-[1-(2-Ethoxyphenyl)-1H-tetrazol-5- yl]piperidin-4-yl}-6-(3-fluorophenyl)nicotinamide [Example 105]

Target: T1, human recombinant H-PGDS
Assay: Slightly modified h-PGDS TBA enzyme assay (Examples 623 onwards)
Type: biochemical
Conditions: not given
Experimental: Prostaglandin D Synthase (PGDS) converts the substrate prostaglandin H2 (PGH2) to prostaglandin D2.
Examples 623 onwards were tested in a slightly modified assay: The enzyme assay (30 μls during biological process) contained 100 mM Trizma pH 8.0, 100 μM MgCl2, 0.1 mg/ml IgG Rabbit serum, 5.0 μM PGH2 (Cayman; ethanol solution, #17020), 2.5 mM L-Glutathione (Sigma; reduced form #G4251), 1:40,000 human recombinant H-PGDS (from 1 mg/ml), 0.5% DMSO and inhibitor (varying concentration). 3 μls of diluted inhibitor (dissolved in DMSO) was plated into a 384-well assay plate followed by a 24 μl addition of an enzyme solution containing h-PGDS, Trizma, MgCl2, IgG and L-Glutathione. After pre-incubation of inhibitor and enzyme solution for 10 minutes at room temperature, the reaction was initiated with a 3 μl addition of substrate solution in 10 mM HCl. The reaction was terminated after 40 second by the addition of 3 μl stop buffer containing FeCl2 and citric acid. After addition of 45 μl of TBA plates were heated for one hour in a 70° C. oven. Plates were cooled at room temperature overnight and read on a plate reader the next day with excitation @ 530 nm and emission @ 560 nm. IC50's of inhibitors were calculated with a 4-parameter fit using 11 inhibitor concentrations in duplicate with 1/2 log serial dilutions. […] The highest inhibitor concentration tested was typically 10 μM.

Molecule	IC50 [nM]
N#Cc1cccc(-c2ccc(C(=O)NC3CCN(CC(F)(F)F)CC3)cn2)c1 [Example 623, 6-(3-Cyanophenyl)-N-[1-(2,2,2-trifluoroethyl)piperidin-4-yl]nicotinamide]	104
N#Cc1ccccc1-c1ccc(C(=O)NC2CCN(CC(F)(F)F)CC2)cn1 [Example 624, 6-(2-Cyanophenyl)-N-[1-(2,2,2-trifluoroethyl)piperidin-4-yl]nicotinamide]	36
O=C(N[C@H]1[C@@H]2CNC[C@@H]21)c1ccc(-c2cccc(F)c2)nc1 [Example 653, N-[(1R,5S,6s)-3-azabicyclo[3.1.0]hex-6-yl]-6-(3-fluorophenyl)nicotinamide di-hydrochloride]	177

Results, then the molecule that gave them:

IC50 [nM]	Molecule
4.06	O=C(NC1CCN(c2ncccn2)CC1)c1ccc(-c2ccccc2O)nc1 [Example 625, 6-(2-Hydroxyphenyl)-N-(1-pyrimidin-2-ylpiperidin-4-yl)nicotinamide]
6.75	CC(C)(C)C(=O)N1CCC(NC(=O)c2ccc(-c3ccccc3O)nc2)CC1 [Example 627]
6.22	CCOC(=O)N1CCC(NC(=O)c2ccc(-c3ccccc3O)nc2)CC1 [Example 628]
22.2	O=C(NC1CCN(CC2CC2)CC1)c1ccc(-c2ccccc2O)nc1 [Example 629]
32.8	COCCN1CCC(NC(=O)c2ccc(-c3ccccc3O)nc2)CC1 [Example 630]
82.4	CCCN1CCC(NC(=O)c2ccc(-c3ccccc3O)nc2)CC1 [Example 631]
5.57	O=C(NC1CCN(c2cccnn2)CC1)c1ccc(-c2ccccc2O)nc1 [Example 632]
16.6	CC(C)S(=O)(=O)N1CCC(NC(=O)c2ccc(-c3ccccc3O)nc2)CC1 [Example 633]
6.13	Cn1nnnc1N1CCC(NC(=O)c2ccc(-c3ccccc3O)nc2)CC1 [Example 634]
10.9	O=C(NC1CCN(CC(F)(F)F)CC1)c1ccc(-c2cc(F)ccc2O)nc1 [Example 635]
17.2	CC(C)(C)C(=O)N1CCC(NC(=O)c2ccc(-c3cc(F)ccc3O)nc2)CC1 [Example 636]
62.4	COCCN1CCC(NC(=O)c2ccc(-c3cc(F)ccc3O)nc2)CC1 [Example 637]
83.3	CCCN1CCC(NC(=O)c2ccc(-c3cc(F)ccc3O)nc2)CC1 [Example 638]
10000	O=C(NC1CCN(c2cccnn2)CC1)c1ccc(-c2cc(F)ccc2O)nc1 [Example 639]
129	CCN1CCC(NC(=O)c2ccc(-c3cc(F)ccc3O)nc2)CC1 [Example 640]
13.9	CC(C)S(=O)(=O)N1CCC(NC(=O)c2ccc(-c3cc(F)ccc3O)nc2)CC1 [Example 642]
7.77	Cn1nnnc1N1CCC(NC(=O)c2ccc(-c3cc(F)ccc3O)nc2)CC1 [Example 643]
0.568	O=C1CC(NC(=O)c2ccc(-c3cccc(F)c3)nc2)c2ccccc2N1 (stereo not drawn) [Example 650, 6-(3-Fluorophenyl)-N-(2-oxo-1,2,3,4-tetrahydroquinolin-4-yl)nicotinamide]
2.01	O=C(N[C@H]1[C@@H]2CN(CC(F)(F)F)C[C@@H]21)c1ccc(-c2cccc(F)c2)nc1 [Example 651, 6-(3-Fluorophenyl)-N-((1R,5S,6S)-3-(2,2,2-trifluoroethyl)-3-aza-bicyclo[3.1.0]hexan-6-yl)nicotinamide]
33.8	CC(=O)N1C[C@@H]2[C@H](C1)[C@H]2NC(=O)c1ccc(-c2cccc(F)c2)nc1 [Example 654, N-[(1R,5S,6s)-3-acetyl-3-azabicyclo[3.1.0]hex-6-yl]-6-(3-fluorophenyl)nicotinamide]
66.8	CCCN1C[C@@H]2[C@H](C1)[C@H]2NC(=O)c1ccc(-c2cccc(F)c2)nc1 [Example 655]
